# Where two headings read alike, the source gives them in different places.
# Assays:
# [1] = Dehydration and pulverization of plain yogurt by non-reducing saccharide; design: unit not given here
# Description: The anhydrous crystalline cyclotetrasaccharide; crystalline cyclotetrasaccharide, monohydrate; and anhydrous amorphous cyclotetrasaccharide were respectively prepared by the methods in Examples A-1, A-2, and A-3. As the crystalline α,α-trehalose, dihydrate, a commercially available “TREHA®” commercialized by Hayashibara Shoji Inc., Okayama, Japan, was used. The anhydrous crystalline α,α-trehalose and the anhydrous amorphous α,α-trehalose used in this experiment were prepared from a commercialized crystalline α,α-trehalose, dihydrate, using the methods disclosed in Examples for Reference 1 and 3 in Japanese Patent Kokai No. 170,221/94. To four parts by weight of a plain yogurt with a moisture content of about 77% was added either of the above saccharides in an amount of 11 to 16 parts by weight. The resultant mixtures were respectively placed in vats, allowed to stand at 25° C. for 24 hours, and macroscopically observed their change on standing. The judgement was conducted in such a manner of sufficiently dehydrating the resulting mixtures to be solidified, subjected to a pulverizer for pulverization, and evaluated as “◯”, when the solids were easily pulverized; “Δ”, when the dehydration of the resulting mixtures was rather insufficient and the pulverization of solids was substantially difficult, though the resulting mixtures were solidified; and “x”, when the dehydration of the resulting mixtures was insufficient and could not be pulverized by a pulverizer.
# [2] = Dehydrating action: moisture absorption on standing at controlled relative humidity; type: physicochemical; conditions: for moisture content (%) by the Karl Fisher method: 25° C.
# From the text: Anhydrous crystalline cyclotetrasaccharide; crystalline cyclotetrasaccharide, monohydrate; anhydrous amorphous cyclotetrasaccharide; and crystalline cyclotetrasaccharide, penta- or hexa-hydrate were experimented in detail on their dehydrating actions, particularly, moisture absorption abilities against saccharides and changes on standing. As a control, anhydrous crystalline α,α-trehalose, anhydrous amorphous α,α-trehalose, and crystalline α,α-trehalose, dihydrate, were used as saccharides. The experiments were as follows: […]
# Aspergillus niger = assay: Bacterial contamination of gelatinized starch (gyuhi); conditions: gyuhi with six parts by weight of saccharide, 25° C., open conditions
# Description: The mixture was mixed with a mixer and further mixed to homogeneity with two parts by weight of a starch hydrolyzate, shaped, and roughly dried for two hours, while blowing 40° C. hot air to the contents, to obtain “gyuhi” (a rice paste with sugar).
# [3] = test system: α-isomaltosylglucosaccharide-forming enzyme; assay: Specificity of transfer acceptor (C9 enzyme); type: biochemical, Bacillus globisporus C9 strain; conditions: acceptor 1.6%, PINE-DEX #100 donor 4%, one unit/g donor, 30° C., pH 6.0, 24 hours
# Description: (§1) A variety of saccharides were tested whether they could be used as transferring-acceptors for the α-isomaltosylglucosaccharide-forming enzyme. A solution of D-glucose, D-xylose, L-xylose, D-galactose, D-fructose, D-mannose, D-arabinose, D-fucose, L-sorbose, L-rhamnose, methyl-α-glucopyranoside, methyl-β-glucopyranoside, N-acetyl-glucosamine, sorbitol, α,α-trehalose, isomaltose, isomaltotriose, cellobiose, gentibiose, maltitol, lactose, sucrose, α-cyclodextrin, β-cyclodextrin, or γ-cyclodextrin was prepared. […] The reaction mixtures after the enzymatic reactions were analyzed on gas chromatography (abbreviated as “GLC” hereinafter) for monosaccharides and disaccharides as acceptors, and on HPLC for trisaccharides and higher saccharides as acceptors to confirm whether these saccharides could be used as their transfer acceptors. In the case of performing GLC, the following apparatuses and conditions were used: […] In the case of HPLC analysis, the apparatuses and conditions used were: HPLC apparatus, “CCPD” commercialized by Tosoh Corporation, Tokyo, Japan; column, “ODS-AQ-303” commercialized by YMC Co., Ltd., Tokyo, Japan; eluent, water at a flow rate of 0.5 ml/min; and detection, a differential refractometer.
# [4] = test system: α-isomaltosylglucosaccharide-forming enzyme; assay: Specificity of transfer acceptor (C11 enzyme); type: biochemical, Bacillus globisporus C11 strain; conditions: acceptor 1.6%, PINE-DEX #100 donor 4%, one unit/g donor, 30° C., pH 6.0, 24 hours
# Description: as §1
# [5] = relative humidity 75%, 0 days after treatment
# [6] = relative humidity 75%, 1 day after treatment
# [7] = relative humidity 75%, 2 days after treatment
# [8] = relative humidity 75%, 3 days after treatment
# [9] = relative humidity 75%, 7 days after treatment
compound,measurement,setting,value
"O.O.OC[C@H]1O[C@H](O[C@H]2O[C@H](CO)[C@@H](O)[C@H](O)[C@H]2O)[C@H](O)[C@@H](O)[C@@H]1O [Saccharide G, crystalline α,α-trehalose, dihydrate, reference compound]",Water content (before use),[1],9.7
same,moisture content (%) by the Karl Fisher method,[2]; [5],9.7%
same,moisture content (%) by the Karl Fisher method,[2]; [6],9.7%
same,moisture content (%) by the Karl Fisher method,[2]; [7],9.7%
same,moisture content (%) by the Karl Fisher method,[2]; [8],9.8%
same,moisture content (%) by the Karl Fisher method,[2]; [9],9.8%
"OC[C@H]1O[C@@H]2OC[C@H]3O[C@H](O[C@@H]4[C@@H](O)[C@@H](OC[C@H]5O[C@H](O[C@H]([C@H]2O)[C@@H]1O)[C@H](O)[C@@H](O)[C@@H]5O)O[C@H](CO)[C@H]4O)[C@H](O)[C@@H](O)[C@@H]3O [Saccharide C, anhydrous amorphous cyclotetrasaccharide]",Water content (before use),[1]; listed as C,0.3
same,moisture content (%) by the Karl Fisher method,"[2]; relative humidity 60%, 0 days after treatment, listed as C",0.3%
same,moisture content (%) by the Karl Fisher method,"[2]; relative humidity 60%, 1 day after treatment, listed as C",13.7%
same,moisture content (%) by the Karl Fisher method,"[2]; relative humidity 60%, 2 days after treatment, listed as C",13.8%
same,moisture content (%) by the Karl Fisher method,"[2]; relative humidity 60%, 3 days after treatment, listed as C",13.9%
same,moisture content (%) by the Karl Fisher method,"[2]; relative humidity 60%, 7 days after treatment, listed as C",14.1%
same,moisture content (%) by the Karl Fisher method,"[2]; relative humidity 75%, 0 days after treatment, listed as C",0.3%
same,moisture content (%) by the Karl Fisher method,"[2]; relative humidity 75%, 1 day after treatment, listed as C",14.2%
same,moisture content (%) by the Karl Fisher method,"[2]; relative humidity 75%, 2 days after treatment, listed as C",13.6%
same,moisture content (%) by the Karl Fisher method,"[2]; relative humidity 75%, 3 days after treatment, listed as C",13.7%
same,moisture content (%) by the Karl Fisher method,"[2]; relative humidity 75%, 7 days after treatment, listed as C",13.7%
same,"moisture absorption level, % of its weight","[2]; relative humidity of 60%, listed as anhydrous amorphous cyclotetrasaccharide",about 14%
"OC[C@H]1O[C@H](O[C@H]2O[C@H](CO)[C@@H](O)[C@H](O)[C@H]2O)[C@H](O)[C@@H](O)[C@@H]1O [Saccharide F, anhydrous amorphous α,α-trehalose, reference compound]",Water content (before use),[1]; listed as F,0.8
same,moisture content (%) by the Karl Fisher method,"[2]; relative humidity 75%, 0 days after treatment, listed as F",0.8%
same,moisture content (%) by the Karl Fisher method,"[2]; relative humidity 75%, 1 day after treatment, listed as F",9.8%
same,moisture content (%) by the Karl Fisher method,"[2]; relative humidity 75%, 2 days after treatment, listed as F",9.7%
same,moisture content (%) by the Karl Fisher method,"[2]; relative humidity 75%, 7 days after treatment, listed as F",9.7%
"crystalline cyclotetrasaccharide, monohydrate [Saccharide B]",Water content (before use),[1],2.7
same,moisture content (%) by the Karl Fisher method,"[2]; relative humidity 60%, 0 days after treatment",2.7%
same,moisture content (%) by the Karl Fisher method,"[2]; relative humidity 60%, 1 day after treatment",2.7%
same,moisture content (%) by the Karl Fisher method,"[2]; relative humidity 60%, 2 days after treatment",2.8%
same,moisture content (%) by the Karl Fisher method,"[2]; relative humidity 60%, 3 days after treatment",2.8%
same,moisture content (%) by the Karl Fisher method,"[2]; relative humidity 60%, 7 days after treatment",2.9%
same,moisture content (%) by the Karl Fisher method,[2]; [5],2.7%
same,moisture content (%) by the Karl Fisher method,[2]; [6],14.0%
same,moisture content (%) by the Karl Fisher method,[2]; [7],14.0%
same,moisture content (%) by the Karl Fisher method,[2]; [8],14.1%
same,moisture content (%) by the Karl Fisher method,[2]; [9],14.1%
same,"moisture absorption level, % of its weight",[2]; relative humidity of 75%,about 14%
"crystalline cyclotetrasaccharide, penta- or hexa-hydrate [Saccharide D]","colonies of Aspergillus niger found in gyuhi, days on standing",Aspergillus niger,15 days
"OC[C@H]1O[C@H](O[C@H]2O[C@H](CO)[C@@H](O)[C@H](O)[C@H]2O)[C@H](O)[C@@H](O)[C@@H]1O [Saccharide E, anhydrous crystalline α,α-trehalose, reference compound]",Water content (before use),[1]; listed as E,0.3
same,moisture content (%) by the Karl Fisher method,"[2]; relative humidity 75%, 0 days after treatment, listed as E",0.3%
same,moisture content (%) by the Karl Fisher method,"[2]; relative humidity 75%, 1 day after treatment, listed as E",9.7%
same,moisture content (%) by the Karl Fisher method,"[2]; relative humidity 75%, 2 days after treatment, listed as E",9.6%
same,moisture content (%) by the Karl Fisher method,[2]; [8],9.8%
same,moisture content (%) by the Karl Fisher method,"[2]; relative humidity 75%, 7 days after treatment, listed as E",9.8%
"O=C[C@H](O)[C@@H](O)[C@H](O)CO [D-Xylose, D-xylose]","Product of saccharide transferring reaction, Enzyme of C9 strain",[3],++ (a saccharide-transferred product was detected in an amount of at least ten percent through transferring reaction to acceptor)
same,"Product of saccharide transferring reaction, Enzyme of C11 strain",[4],++ (a saccharide-transferred product was detected in an amount of at least ten percent through transferring reaction to acceptor)
"OC[C@H]1O[C@H](O[C@H]2O[C@H](CO)[C@@H](O)[C@H](O)[C@H]2O)[C@H](O)[C@@H](O)[C@@H]1O [α,α-Trehalose, α,α-trehalose, reference compound]","Product of saccharide transferring reaction, Enzyme of C9 strain",[3],++ (a saccharide-transferred product was detected in an amount of at least ten percent through transferring reaction to acceptor)
same,"Product of saccharide transferring reaction, Enzyme of C11 strain",[4],++ (a saccharide-transferred product was detected in an amount of at least ten percent through transferring reaction to acceptor)
same,"moisture absorption level, % of its weight",[2]; relative humidity of 75%,≤ 10%
"OC[C@H]1O[C@@H](OC[C@H]2OC(O)[C@H](O)[C@@H](O)[C@@H]2O)[C@H](O)[C@@H](O)[C@@H]1O (stereo partly shown) [Gentibiose, gentibiose]","Product of saccharide transferring reaction, Enzyme of C9 strain",[3],++ (a saccharide-transferred product was detected in an amount of at least ten percent through transferring reaction to acceptor)
same,"Product of saccharide transferring reaction, Enzyme of C11 strain",[4],++ (a saccharide-transferred product was detected in an amount of at least ten percent through transferring reaction to acceptor)

# — patent publication US7186701B2, “Dehydrating agent and method for dehydrating moist article using the agent and dehydrated article obtained by the method” (Kabushiki Kaisha Hayashibara Seibutsu Kagaku Kenkyujo, priority 2001, dated 2007)
